{"source": "paper PMC7270110", "about": "“Labeled oxytocin administered via the intranasal route reaches the brain in rhesus macaques” (Nature Communications, 2020)", "assay": "Brain tissue concentration of endogenous OT (d0OT) by LC-MS/MS (terminal experiment)", "type": "in vivo, rhesus macaques (Macaca mulatta)", "design": "key: ND: not detected; +: detected but not quantifiable", "conditions": "for Concentrations of endogenous brain oxytocin (OT): molarity calculated for extracellular fluid volume; for BRAIN OT concentration (endogenous): LC-MS/MS", "experimental": "Monkeys were divided into three groups, each with two monkeys; each group received the following in a terminal study at the 5th week: Group 1 (Monkeys ID# 1 and ID# 5) received 40 IU of d5OT IN, Group 2 received 80 IU of d5OT IN (Monkeys ID# 2 and ID# 4) and Group 3 received 80 IU of d5OT IV (Monkeys ID# 3 and ID# 6). Animals were perfused on average, 140 ± 7 (mean ± SD) min after d5OT administration (range = 135–149 min) (Table 4). Plasma and CSF were drawn just before administration of d5OT, at the midpoint between d5OT administration and perfusion (~60 min post-d5OT administration), and just before perfusion.\nBrain tissue distribution of d5OT, as well as the endogenous concentrations of OT (d0OT), were measured in the following 12 brain regions: cerebellum, brainstem, striatum, amygdala, thalamus, visual cortex, insular cortex, hypothalamus, hippocampus, mPFC (Brodmann areas 32,25,24), dPFC (Brodmann areas 46,9,10), and OFC (Brodmann areas 14,13,12) (Tables 1, 2 and 3).\nBrain tissue sample preparation: Samples (~1.5 mg per sample) were individually weighed and placed into 12 mm × 75 mm glass tubes containing 1.5 ml ice-cold 1 M acetic acid and 30 µl of OT-d10 internal standard. Tissues were homogenized on ice and the resulting homogenates were poured into individual 15 ml polystyrene tubes. The original glass tube was rinsed with 1 ml acetonitrile, and this rinse was added to the appropriate 15 ml polystyrene tube containing the homogenate. After all homogenizations were complete, 3 ml acetonitrile was added to each tube and extraction proceeded, as described for the plasma and CSF samples.\nLC–MS/MS instrument parameters: Microtiter plates were prepared, as described above, and loaded onto a SIL-30ACMP autosampler set at 4 °C (Shimadzu). Forty microliters of each standard, QC or sample were injected onto an ACE Excel 2 C18-PFP 50 mm × 2.1 mm column (Advanced Chromatography Technologies, LTD, Aberdeen, Scotland) at 50 °C using reversed-phase chromatography. Mobile phase A was 0.1% formic acid in water and mobile phase B was 0.1% formic acid in ACN. The LC time gradient was created using two Nexera LC-30AD pumps (Shimadzu) running at 0.5 ml/min. Chromatography for serum and CSF samples began at 10% B and ended at 16% B at 3.6 min. One minute at 60% B was then required to wash the column, and the pumps re-equilibrated at 10% B for an additional 1.7 min (total run time ~6 min). Outside of the 1.55–3.55 min window during which OT eluted, a divert valve sent the LC effluent to waste.\nHeated electrospray […] in positive mode, with scheduled multiple reaction monitoring (MRM) on a Shimadzu LCMS-8050, was used for detection of OT. The interface temperature was 270 °C and heat block temperature was 170 °C. Gas was supplied by a Peak Genius 1051 nitrogen and air generator (Peak Scientific, Inchinnan, UK). Nitrogen gas was used for nebulizing (1 L/min) and drying (8.2 L/min), while air was used for heating (7.8 L/min). A capillary B needle was used in the interface. Needle protrusion was set to 1.25 mm and probe distance was set to 1.0 mm; both were determined empirically. Argon (Airgas, Radnor, PA) was used for the collision-induced dissociation at 330 kPa. The MS/MS conditions for OT were optimized using the automated MRM optimization procedure in LabSolutions software (Shimadzu). We collected two MRM transitions each, for d0OT (1007.40 > 723.40 and 1007.40 > 285.30), d5OT (1012.00 > 723.40 and 1012.00 > 290.35), and d10OT (1017.70 > 723.35 and 1017.70 > 295.40); the first transition listed in each case was used for quantitation, while the second was used as a reference ion. Retention times for d0OT, d5OT, and d10OT were 3.290, 3.270, and 3.253 min, respectively.\nThe sensitivities of each assay within the method were determined by the lowest and highest concentration calibrators in the calibration curve. The lower limit of quantitation (LLOQ) for d0OT was 10 pg/ml (4 pg/col); the LLOQ for d5OT was 100 pg/ml (40 pg/col). […]", "data": [{"smiles": "CC[C@H](C)[C@@H]1NC(=O)[C@H](Cc2ccc(O)cc2)NC(=O)[C@@H](N)CSSC[C@@H](C(=O)N2CCC[C@H]2C(=O)N[C@@H](CC(C)C)C(=O)NCC(N)=O)NC(=O)[C@H](CC(N)=O)NC(=O)[C@H](CCC(N)=O)NC1=O", "note": "[OT, oxytocin]", "values": [{"measurement": "Concentrations of endogenous brain oxytocin (OT)", "setting": "Amygdala, 40 IN, monkey #5 (F)", "value": "2.14e-07", "unit": "M"}, {"measurement": "Concentrations of endogenous brain oxytocin (OT)", "setting": "Amygdala, 80 IN, monkey #2 (M)", "value": "3.2e-08", "unit": "M"}, {"measurement": "Concentrations of endogenous brain oxytocin (OT)", "setting": "Amygdala, 80 IN, monkey #4 (M)", "value": "1.31e-07", "unit": "M"}, {"measurement": "Concentrations of endogenous brain oxytocin (OT)", "setting": "Amygdala, 80 IV, monkey #3 (F)", "value": "2.5e-08", "unit": "M"}, {"measurement": "Concentrations of endogenous brain oxytocin (OT)", "setting": "Amygdala, 80 IV, monkey #6 (F)", "value": "4e-08", "unit": "M"}, {"measurement": "BRAIN OT concentration (endogenous)", "setting": "Amygdala, after d5OT 40 IU IN, monkey #5 (F), perfused 138 min post-dose", "value": 39.11, "unit": "pg/mg"}, {"measurement": "BRAIN OT concentration (endogenous)", "setting": "Amygdala, after d5OT 80 IU IN, monkey #2 (M), perfused 136 min post-dose", "value": 5.82, "unit": "pg/mg"}, {"measurement": "BRAIN OT concentration (endogenous)", "setting": "Amygdala, after d5OT 80 IU IN, monkey #4 (M), perfused 135 min post-dose", "value": 23.97, "unit": "pg/mg"}, {"measurement": "BRAIN OT concentration (endogenous)", "setting": "Amygdala, after d5OT 80 IU IV, monkey #3 (F), perfused 149 min post-dose", "value": 4.63, "unit": "pg/mg"}, {"measurement": "BRAIN OT concentration (endogenous)", "setting": "Amygdala, after d5OT 80 IU IV, monkey #6 (F), perfused 135 min post-dose", "value": 7.26, "unit": "pg/mg"}, {"measurement": "Concentrations of endogenous brain oxytocin (OT)", "setting": "Brainstem, 40 IN, monkey #1 (F)", "value": "4e-08", "unit": "M"}, {"measurement": "Concentrations of endogenous brain oxytocin (OT)", "setting": "Brainstem, 40 IN, monkey #5 (F)", "value": "5.1e-08", "unit": "M"}, {"measurement": "Concentrations of endogenous brain oxytocin (OT)", "setting": "Brainstem, 80 IN, monkey #2 (M)", "value": "2.8e-08", "unit": "M"}, {"measurement": "Concentrations of endogenous brain oxytocin (OT)", "setting": "Brainstem, 80 IN, monkey #4 (M)", "value": "1.9e-08", "unit": "M"}, {"measurement": "Concentrations of endogenous brain oxytocin (OT)", "setting": "Brainstem, 80 IV, monkey #3 (F)", "value": "6e-08", "unit": "M"}, {"measurement": "Concentrations of endogenous brain oxytocin (OT)", "setting": "Brainstem, 80 IV, monkey #6 (F)", "value": "2e-08", "unit": "M"}, {"measurement": "BRAIN OT concentration (endogenous)", "setting": "Brainstem, after d5OT 40 IU IN, monkey #1 (F), perfused 148 min post-dose", "value": 7.27, "unit": "pg/mg"}, {"measurement": "BRAIN OT concentration (endogenous)", "setting": "Brainstem, after d5OT 40 IU IN, monkey #5 (F), perfused 138 min post-dose", "value": 9.34, "unit": "pg/mg"}, {"measurement": "BRAIN OT concentration (endogenous)", "setting": "Brainstem, after d5OT 80 IU IN, monkey #2 (M), perfused 136 min post-dose", "value": 5.11, "unit": "pg/mg"}, {"measurement": "BRAIN OT concentration (endogenous)", "setting": "Brainstem, after d5OT 80 IU IN, monkey #4 (M), perfused 135 min post-dose", "value": 3.55, "unit": "pg/mg"}, {"measurement": "BRAIN OT concentration (endogenous)", "setting": "Brainstem, after d5OT 80 IU IV, monkey #3 (F), perfused 149 min post-dose", "value": 10.93, "unit": "pg/mg"}, {"measurement": "BRAIN OT concentration (endogenous)", "setting": "Brainstem, after d5OT 80 IU IV, monkey #6 (F), perfused 135 min post-dose", "value": 3.58, "unit": "pg/mg"}, {"measurement": "Concentrations of endogenous brain oxytocin (OT)", "setting": "Cerebellum, 40 IN, monkey #1 (F)", "value": "1.2e-08", "unit": "M"}, {"measurement": "Concentrations of endogenous brain oxytocin (OT)", "setting": "Cerebellum, 40 IN, monkey #5 (F)", "value": "<1e-09", "unit": "M"}, {"measurement": "Concentrations of endogenous brain oxytocin (OT)", "setting": "Cerebellum, 80 IN, monkey #4 (M)", "value": "<1e-09", "unit": "M"}, {"measurement": "Concentrations of endogenous brain oxytocin (OT)", "setting": "Cerebellum, 80 IV, monkey #6 (F)", "value": "+"}, {"measurement": "BRAIN OT concentration (endogenous)", "setting": "Cerebellum, after d5OT 40 IU IN, monkey #1 (F), perfused 148 min post-dose", "value": 2.16, "unit": "pg/mg"}, {"measurement": "BRAIN OT concentration (endogenous)", "setting": "Cerebellum, after d5OT 40 IU IN, monkey #5 (F), perfused 138 min post-dose", "value": 0.12, "unit": "pg/mg"}, {"measurement": "BRAIN OT concentration (endogenous)", "setting": "Cerebellum, after d5OT 80 IU IN, monkey #4 (M), perfused 135 min post-dose", "value": 0.06, "unit": "pg/mg"}, {"measurement": "BRAIN OT concentration (endogenous)", "setting": "Cerebellum, after d5OT 80 IU IV, monkey #6 (F), perfused 135 min post-dose", "value": "+"}, {"measurement": "Concentrations of endogenous brain oxytocin (OT)", "setting": "Hippocampus, 40 IN, monkey #1 (F)", "value": "5e-09", "unit": "M"}, {"measurement": "Concentrations of endogenous brain oxytocin (OT)", "setting": "Hippocampus, 40 IN, monkey #5 (F)", "value": "5e-09", "unit": "M"}, {"measurement": "Concentrations of endogenous brain oxytocin (OT)", "setting": "Hippocampus, 80 IN, monkey #2 (M)", "value": "1.5e-08", "unit": "M"}, {"measurement": "Concentrations of endogenous brain oxytocin (OT)", "setting": "Hippocampus, 80 IN, monkey #4 (M)", "value": "1.5e-08", "unit": "M"}, {"measurement": "Concentrations of endogenous brain oxytocin (OT)", "setting": "Hippocampus, 80 IV, monkey #3 (F)", "value": "5e-09", "unit": "M"}, {"measurement": "Concentrations of endogenous brain oxytocin (OT)", "setting": "Hippocampus, 80 IV, monkey #6 (F)", "value": "5e-09", "unit": "M"}, {"measurement": "BRAIN OT concentration (endogenous)", "setting": "Hippocampus, after d5OT 40 IU IN, monkey #1 (F), perfused 148 min post-dose", "value": 0.99, "unit": "pg/mg"}, {"measurement": "BRAIN OT concentration (endogenous)", "setting": "Hippocampus, after d5OT 40 IU IN, monkey #5 (F), perfused 138 min post-dose", "value": 0.99, "unit": "pg/mg"}, {"measurement": "BRAIN OT concentration (endogenous)", "setting": "Hippocampus, after d5OT 80 IU IN, monkey #2 (M), perfused 136 min post-dose", "value": 2.83, "unit": "pg/mg"}, {"measurement": "BRAIN OT concentration (endogenous)", "setting": "Hippocampus, after d5OT 80 IU IV, monkey #3 (F), perfused 149 min post-dose", "value": 0.99, "unit": "pg/mg"}, {"measurement": "BRAIN OT concentration (endogenous)", "setting": "Hypothalamus, after d5OT 40 IU IN, monkey #1 (F), perfused 148 min post-dose", "value": 2186.74, "unit": "pg/mg"}, {"measurement": "BRAIN OT concentration (endogenous)", "setting": "Hypothalamus, after d5OT 80 IU IN, monkey #2 (M), perfused 136 min post-dose", "value": 943.27, "unit": "pg/mg"}, {"measurement": "BRAIN OT concentration (endogenous)", "setting": "Hypothalamus, after d5OT 80 IU IV, monkey #3 (F), perfused 149 min post-dose", "value": 1491.96, "unit": "pg/mg"}, {"measurement": "Concentrations of endogenous brain oxytocin (OT)", "setting": "Insular Cortex, 40 IN, monkey #5 (F)", "value": "2e-09", "unit": "M"}, {"measurement": "Concentrations of endogenous brain oxytocin (OT)", "setting": "Insular Cortex, 80 IN, monkey #4 (M)", "value": "<1e-09", "unit": "M"}, {"measurement": "Concentrations of endogenous brain oxytocin (OT)", "setting": "Insular Cortex, 80 IV, monkey #3 (F)", "value": "1e-09", "unit": "M"}]}]}
